Consider seven compounds from patent US20260098017A1, “NOVEL AROMATIC RING DERIVATIVE CONTAINING AMIDE SUBSTITUTION AND USE THEREOF” (TIANJIN PHARMACEUTICAL BIOTECHNOLOGY CO., LTD., priority 2022, published 2026).

In one data set the target is TYK2 JH2 pseudokinase (Homo sapiens, UniProt P29597). The experiment in a line: TYK2 JH2 enzyme binding assay in vitro (TR-FRET). How it is done: Instrumentation: Envision microplate reader (PerkinElmer), ECHO550 (LABCYTE).
Method: the inhibitory effects of compounds on TYK2 JH2 pseudokinase was tested using time-resolved fluorescence resonance energy transfer (TR-FRET) method.
Procedure: compounds were prepared into 10 mM stock solutions using DMSO, which were further diluted into compound dilutions (200×) with different concentration gradients in DMSO, and the compound dilutions (200×) were transferred to a 384-well assay plate using an Echo instrument. […] TYK2 JH2 pseudokinase, Tb antibody, and Tracer working solutions were prepared using the dilution buffer, respectively. 5 uL of TYK2 JH2 pseudokinase working solution (final concentration 0.5 nM) was added to a 384-well assay plate, and centrifuged at 1000 rpm for 30 s. 5 uL of Tb antibody (final concentration 1×) was added to the 384-well assay plate, and centrifuged at 1000 rpm for 30 s. 5 uL of Tracer (final concentration 0.5 nM) was added to the 384-well assay plate, and centrifuged at 1000 rpm for 30 s. Incubation was performed at room temperature for 60 min, and then at 4° C. overnight.
Data Analysis: XLfit, a software developed by IDBS and integrated into the Microsoft Excel environment, was used to process and analyze the test data.

Data set [1] deals with imiquimod-induced mouse psoriasis-like model. Briefly: Imiquimod-induced mouse psoriasis-like model (PASI score). Type of data set: in vivo. Particulars: oral gavage, 10 mg/kg, 25 mg/kg, 50 mg/kg, bid, compared with the model group.
The target of a further data set is T1, TYK2 JH1 kinase (Homo sapiens, UniProt P29597).
T1 sequence (P29597 897-1176 limits assumed): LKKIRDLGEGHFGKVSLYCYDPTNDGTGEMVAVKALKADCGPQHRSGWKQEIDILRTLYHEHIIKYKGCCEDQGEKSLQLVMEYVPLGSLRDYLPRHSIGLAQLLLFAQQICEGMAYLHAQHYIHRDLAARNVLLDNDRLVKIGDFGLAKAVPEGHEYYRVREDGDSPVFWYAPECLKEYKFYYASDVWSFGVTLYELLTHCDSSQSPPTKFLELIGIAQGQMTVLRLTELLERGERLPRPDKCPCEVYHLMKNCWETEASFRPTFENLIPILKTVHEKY
The experiment in a line: TYK2 JH1 enzyme assay in vitro (TR-FRET). The format is biochemical. (In TR-FRET formats the signal depends on donor and acceptor labels being close together.)

The next data set concerns the target JAK1 JH1 kinase (Homo sapiens, UniProt P23458). Briefly: JAK1 JH1 enzyme assay in vitro (TR-FRET). Type of data set: biochemical. Particulars: read-out: JAK 1 JH1 IC50.
The target of the next data set is JAK3 JH1 kinase (Homo sapiens, UniProt P52333). Briefly: JAK3 JH1 enzyme assay in vitro (TR-FRET). The format is biochemical. The conditions noted are these: TR-FRET; read-out: JAK 3 JH1 IC50.
JAK3 JH1 kinase, sequence (P52333 822-1111 limits assumed): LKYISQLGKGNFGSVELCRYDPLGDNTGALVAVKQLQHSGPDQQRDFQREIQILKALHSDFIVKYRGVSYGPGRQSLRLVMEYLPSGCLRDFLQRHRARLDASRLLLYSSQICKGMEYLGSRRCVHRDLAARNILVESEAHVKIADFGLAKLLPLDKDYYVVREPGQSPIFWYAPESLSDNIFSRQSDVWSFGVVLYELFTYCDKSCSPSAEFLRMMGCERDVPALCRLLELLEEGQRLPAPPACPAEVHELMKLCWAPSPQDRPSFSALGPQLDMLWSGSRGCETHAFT
The target of data set [2] is Ba/F3 cell line expressing TYK2 (Homo sapiens, UniProt P29597, cells depend on it, form not given). The experiment in a line: In vitro cellular inhibition assay (Ba/F3 cell proliferation, CellTiter-Glo). The format is cell-based. Particulars: read-out: IC50 (the source's name). How it is done:
The inhibitory effect of the compounds of formula (I) according to the present invention on the TYK2 signaling pathway in cells was assessed using the following method:
Instrumentation: SpectraMax Paradigm reader.
Method: in this experiment, a Ba/F3 cell line expressing TYK2 was employed to assess the effect of the compounds on cell proliferation inhibition by measuring their effects on cell activity in vitro.
Procedure: a CellTiter-Glo buffer was thawed and placed aside till room temperature. A CellTiter-Glo substrate was placed aside till room temperature and dissolved with the buffer to prepare a CellTiter-Glo working solution. To a 96-well flat bottom transparent drug plate, 98 μL of cell culture medium and 2 μL of gradient diluted compound solution were added. The drug plate was placed aside for 10 min, and then 50 μL of the CellTiter-Glo working solution was added. The drug plate was subsequently shaken on an orbital shaker for 2 min and placed aside at room temperature for an additional 10 min. Finally, the luminescence signal was measured on the SpectraMax Paradigm reader.
Data Analysis: the cell proliferation inhibition rate data were processed using the following formula:
Inhibition Rate (Inh %)=100−(RLUDrug−RLUMin)/(RLUMax−RLUMin)×100%.
The inhibition rates of compounds with different concentrations were calculated in EXCEL, and then GraphPad Prism software was employed to plot inhibition rate curve and calculate relevant parameters, including maximum and minimum cell inhibition rates, IC50 values.
For orientation: ATP-based viability assays read luminescence as a measure of living cells.

Another data set addresses T2, hERG channel (Homo sapiens, UniProt Q12809).
T2 construct: expressed in transfected cells; host or cells: HEK-293
Briefly: hERG potassium channel inhibition assay (manual patch clamp). Type of data set: cell-based. The conditions noted are these: HEK-293 cell line stably expressing hERG channel, at the tested concentrations. On the procedure:
Instrumentation: HEKA EPC 10 patch clamp amplifier.
Method: in this experiment, the blocking effect of the compounds on the current of the HEK-293 cell line stably expressing hERG channel was measured using the manual patch clamp technique, and the risk of the compounds on the inhibition of cardiac hERG potassium channel was assessed by fitting the concentration effect relationship.
Procedure: in the patch clamp operation, firstly, a capillary glass tube was pulled into a recording electrode using a microelectrode puller, then an electrode filled with intracellular solution was mounted into a microelectrode holder. A microelectrode manipulator was operated under an inverted microscope to immerse the electrode into an extracellular solution and the electrode resistance (Rpip) was recorded. Then, the electrode was slowly brought into contact with the cell surface, and a negative pressure was applied for suction to form a GΩ seal. At this point, a fast capacitance compensation was performed, and a negative pressure was continuously applied to suck and break the cell membrane to form a whole cell recording mode. Finally, a slow capacitance compensation was performed and experimental parameters including series resistance (Rs) and the like were recorded. No leakage compensation was performed. When the hERG current recorded by the whole cell was stable, the administration of drugs commenced, and each drug concentration acted for about 5 min (or until the current stabilization) before detecting the next concentration. A cover glass covered with cells was placed in a recording bath under an inverted microscope, the blank control extracellular solution and the working solution of the compounds to be tested sequentially flowed through the recording bath from low concentration to high concentration by using gravity perfusion to act on the cells, and solution exchange was performed using a peristaltic pump during recording. The current measured by each cell in the extracellular solution without the compound served as its own control group. Each concentration was independently assessed twice. All electrophysiological tests were performed at room temperature.
Data Analysis: firstly, the tail current (Peak tail currentcompound) after the action of each drug concentration and the blank control tail current (Peak tail currentcontrol) were normalized, then the inhibition rate
corresponding to each drug concentration was calculated, and the mean (Mean), standard deviation (SD) and standard error (SE) of the inhibition rate corresponding to each concentration were calculated, with data expressed as Mean±SE. The calculation of IC50 value and the fitting of dose-response curve for the compound were performed using GraphPad Prism software.
A general note: The hERG channel carries a current that helps repolarise heart muscle cells.

In the next data set the target is JAK1 JH2 pseudokinase (Homo sapiens, UniProt P23458). The experiment in a line: JAK1 JH2 enzyme binding assay in vitro (TR-FRET). The conditions noted are these: read-out: JAK 1 JH2 IC50. How it is done: Instrumentation: Envision microplate reader (PerkinElmer), Echo (LABCYTE)
JAK1 JH2 pseudokinase, sequence (P23458 583-855 limits assumed): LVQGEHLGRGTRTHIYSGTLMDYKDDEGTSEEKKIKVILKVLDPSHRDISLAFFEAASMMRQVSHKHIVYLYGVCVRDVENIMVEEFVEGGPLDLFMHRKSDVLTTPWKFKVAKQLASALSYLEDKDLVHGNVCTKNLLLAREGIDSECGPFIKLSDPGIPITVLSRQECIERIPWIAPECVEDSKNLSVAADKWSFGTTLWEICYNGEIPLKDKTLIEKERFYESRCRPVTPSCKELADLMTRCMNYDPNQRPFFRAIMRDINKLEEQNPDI
Method: in this experiment, the inhibitory effects of compounds on JAK1 JH2 pseudokinase was tested using time-resolved fluorescence resonance energy transfer (TR-FRET) method.
Procedure: compounds were prepared into 10 mM stock solutions using DMSO, which were further diluted into compound dilutions with different concentration gradients in DMSO, and the compound dilutions with 200× final concentration were transferred to a 384-well assay plate using an Echo instrument. The preparation of the following 1× assay working solution: HEPES pH7.5 at a final concentration of 20 mM, MgCl2 at a final concentration of 10 mM, Brij-35 at a final concentration of 0.015%, DTT at a final concentration of 2 mM, BSA at a final concentration of 50 ug/mL. JAK1 JH2 pseudokinase with 3× final concentration, Tb antibody and Tracer were prepared using their respective 1× working solution. 5 uL of JAK1 JH2 pseudokinase was added to a 384-well assay plate, and centrifuged at 1000 rpm for 30 s. 5 uL of Tb antibody was added to the 384-well assay plate, and centrifuged at 1000 rpm for 30 s. 5 uL of Tracer was added to the 384-well assay plate, and centrifuged at 1000 rpm for 30 s. Incubation was performed at room temperature for 60 min, and then at 4° C. overnight. Finally, the 495 nm/520 nm fluorescence signal ratio was measured using the Envision microplate reader (PerkinElmer).
Data Analysis: XLfit, a software developed by IDBS and integrated into the Microsoft Excel environment, was used to process and analyze the test data. […] Thereafter, the concentration and corresponding inhibition rate data were imported into the XLfit software, and the Dose Response One Site 205 model within the software was employed to fit the inhibition rate-concentration curve by four-parameter method, and the IC50 value of the compound was calculated.

For the next data set, the target named is JAK2 JH1 kinase (Homo sapiens, UniProt O60674). The experiment in a line: JAK2 JH1 enzyme assay in vitro (TR-FRET). Type of data set: biochemical. The conditions noted are these: read-out: JAK 2 JH1 IC50.
JAK2 JH1 kinase, sequence (O60674 849-1124 limits assumed): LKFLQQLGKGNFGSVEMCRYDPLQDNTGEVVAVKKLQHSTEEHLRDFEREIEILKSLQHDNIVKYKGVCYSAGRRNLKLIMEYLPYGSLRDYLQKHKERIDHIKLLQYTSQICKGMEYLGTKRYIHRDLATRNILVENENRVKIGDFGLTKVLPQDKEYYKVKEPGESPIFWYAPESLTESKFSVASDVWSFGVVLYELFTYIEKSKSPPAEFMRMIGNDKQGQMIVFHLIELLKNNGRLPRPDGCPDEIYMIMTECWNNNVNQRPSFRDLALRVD

Bounds are passed on as bounds.

TYK2 JH2 pseudokinase, sequence (P29597 589-875 limits assumed): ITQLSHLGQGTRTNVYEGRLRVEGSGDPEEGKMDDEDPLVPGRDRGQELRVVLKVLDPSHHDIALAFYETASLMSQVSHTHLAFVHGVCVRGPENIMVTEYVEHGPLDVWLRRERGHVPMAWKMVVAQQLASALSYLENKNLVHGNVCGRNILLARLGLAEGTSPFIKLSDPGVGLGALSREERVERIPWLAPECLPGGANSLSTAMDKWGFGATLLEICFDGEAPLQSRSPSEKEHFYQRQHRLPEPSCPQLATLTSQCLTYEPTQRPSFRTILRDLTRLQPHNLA
T2 sequence (Q12809 whole entry): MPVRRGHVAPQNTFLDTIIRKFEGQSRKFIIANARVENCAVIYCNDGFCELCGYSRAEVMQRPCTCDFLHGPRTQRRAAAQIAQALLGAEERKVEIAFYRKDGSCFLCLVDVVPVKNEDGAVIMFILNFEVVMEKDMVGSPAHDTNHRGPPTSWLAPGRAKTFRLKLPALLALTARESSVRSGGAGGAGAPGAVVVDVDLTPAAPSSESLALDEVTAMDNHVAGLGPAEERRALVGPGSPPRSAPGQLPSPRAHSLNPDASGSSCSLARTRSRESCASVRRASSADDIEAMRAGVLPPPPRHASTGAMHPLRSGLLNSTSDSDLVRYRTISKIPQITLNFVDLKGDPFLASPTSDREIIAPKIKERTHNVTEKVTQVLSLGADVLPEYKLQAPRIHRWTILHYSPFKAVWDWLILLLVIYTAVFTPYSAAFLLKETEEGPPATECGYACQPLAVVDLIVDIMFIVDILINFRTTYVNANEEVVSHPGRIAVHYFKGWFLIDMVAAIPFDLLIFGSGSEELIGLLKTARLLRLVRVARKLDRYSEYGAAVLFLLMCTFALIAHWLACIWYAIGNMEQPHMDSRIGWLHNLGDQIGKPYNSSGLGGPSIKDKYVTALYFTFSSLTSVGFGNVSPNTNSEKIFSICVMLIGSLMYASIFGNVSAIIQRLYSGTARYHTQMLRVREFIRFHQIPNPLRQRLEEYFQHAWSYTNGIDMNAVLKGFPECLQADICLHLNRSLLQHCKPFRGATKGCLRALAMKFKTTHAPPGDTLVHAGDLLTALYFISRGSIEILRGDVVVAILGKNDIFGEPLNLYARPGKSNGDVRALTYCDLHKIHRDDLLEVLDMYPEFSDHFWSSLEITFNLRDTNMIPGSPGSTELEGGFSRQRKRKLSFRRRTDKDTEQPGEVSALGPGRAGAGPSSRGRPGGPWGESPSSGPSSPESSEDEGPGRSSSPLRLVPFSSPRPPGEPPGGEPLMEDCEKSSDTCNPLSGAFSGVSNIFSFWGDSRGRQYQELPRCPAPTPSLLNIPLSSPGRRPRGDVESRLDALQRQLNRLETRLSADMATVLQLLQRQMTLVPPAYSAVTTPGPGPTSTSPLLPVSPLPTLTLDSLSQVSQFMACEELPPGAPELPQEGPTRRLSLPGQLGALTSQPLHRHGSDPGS
JAK1 JH1 kinase, sequence (P23458 875-1153 limits assumed): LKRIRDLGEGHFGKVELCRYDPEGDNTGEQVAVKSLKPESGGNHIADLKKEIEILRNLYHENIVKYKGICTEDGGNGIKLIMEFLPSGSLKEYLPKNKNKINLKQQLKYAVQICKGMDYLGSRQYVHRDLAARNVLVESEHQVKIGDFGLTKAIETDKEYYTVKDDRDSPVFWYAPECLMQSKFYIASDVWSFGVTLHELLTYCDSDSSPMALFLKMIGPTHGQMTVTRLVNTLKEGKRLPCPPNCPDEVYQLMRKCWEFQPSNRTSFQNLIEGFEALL

Regarding `[2H]C([2H])([2H])NC(=O)c1nnc(NC(=O)C2CC2)cc1Nc1cccc(C(=O)Nc2ccc(C)cc2)c1OC` [Example 2], the IC50 – broadly, the point on the concentration scale where inhibition reaches its midpoint – on TYK2 JH2 pseudokinase is 0.311 nM; against TYK2 JH1 kinase, above 10000 nM; on JAK1 JH1 kinase it was above 10000 nM; at JAK3 JH1 kinase it was above 10000 nM; on JAK1 JH2 pseudokinase, 6.56 nM; at JAK2 JH1 kinase, above 10000 nM. In addition, the “Improvement of psoriasis symptoms by oral administration” value (“Improvement of psoriasis symptoms” for short) in data set [1] was “effectively improve psoriasis symptoms”. Also, in data set [2], the GI50 is 1 to 5 nM. The hERG inhibition entry at hERG channel is on record as “no significant inhibition”.
As to `[2H]C([2H])([2H])NC(=O)c1nnc(NC(=O)C2CC2)cc1Nc1cccc(C(=O)Nc2ccc(C)c(C)c2)c1OC` [Example 4], the IC50 at TYK2 JH2 pseudokinase was 0.293 nM; at TYK2 JH1 kinase it was above 10000 nM; on JAK1 JH1 kinase it was above 10000 nM; at JAK3 JH1 kinase it was above 10000 nM; on JAK1 JH2 pseudokinase it was 5.33 nM; on JAK2 JH1 kinase it was above 10000 nM. Besides, in data set [1], the “Improvement of psoriasis symptoms” value is given as “effectively improve psoriasis symptoms”. Further, the GI50 in data set [2] lay in the range of 1 to 5 nM. For the same compound, the hERG inhibition result on hERG channel is on record as “no significant inhibition”.
As to `[2H]C([2H])([2H])NC(=O)c1nnc(NC(=O)C2CC2)cc1Nc1cccc(C(=O)Nc2ccc(F)cc2)c1OC` [Example 5], the IC50 was 0.281 nM on TYK2 JH2 pseudokinase; above 10000 nM at TYK2 JH1 kinase; above 10000 nM at JAK1 JH1 kinase; above 10000 nM on JAK3 JH1 kinase; 6.93 nM on JAK1 JH2 pseudokinase; above 10000 nM at JAK2 JH1 kinase. In addition, in data set [1], the “Improvement of psoriasis symptoms” value is recorded as “effectively improve psoriasis symptoms”. Moreover, the GI50 in [2] was in the range of 1 to 5 nM. In addition, the hERG inhibition entry on hERG channel was “no significant inhibition”.
On to `[2H]C([2H])([2H])NC(=O)c1nnc(NC(=O)C2CC2)cc1Nc1cccc(C(=O)Nc2cnn(C)c2)c1OC` [Example 34], for which the concentration for half-maximal inhibition (IC50) at TYK2 JH2 pseudokinase was 0.341 nM; on TYK2 JH1 kinase, above 10000 nM; at JAK1 JH1 kinase it was above 10000 nM; at JAK3 JH1 kinase, above 10000 nM; at JAK1 JH2 pseudokinase, 4.16 nM; on JAK2 JH1 kinase it was above 10000 nM. Moreover, the “Improvement of psoriasis symptoms” value in data set [1] is “effectively improve psoriasis symptoms”. Further, in [2], the GI50 was in the range of 1 to 5 nM. The hERG inhibition entry on hERG channel is “no significant inhibition”.
With `[2H]C([2H])([2H])NC(=O)c1nnc(NC(=O)C2CC2)cc1Nc1cccc(C(=O)Nc2cncc(C)c2)c1OC` [Example 38], the IC50 on TYK2 JH2 pseudokinase is 0.322 nM; at TYK2 JH1 kinase, above 10000 nM; at JAK1 JH1 kinase, above 10000 nM; on JAK3 JH1 kinase, above 10000 nM; on JAK1 JH2 pseudokinase it was 2.35 nM; at JAK2 JH1 kinase, above 10000 nM. In data set [1], the “Improvement of psoriasis symptoms” value was “effectively improve psoriasis symptoms”. In addition, the GI50 in data set [2] lay within 1 to 5 nM. In addition, the hERG inhibition entry at hERG channel is reported as “no significant inhibition”.
Turning to `[2H]C([2H])([2H])NC(=O)c1cnc(NC(=O)C2CC2)cc1Nc1cccc(C(=O)Nc2ccc(C)cc2)c1OC` [Example 54], the half-inhibitory concentration (IC50) at TYK2 JH2 pseudokinase was 0.302 nM; on TYK2 JH1 kinase, above 10000 nM; at JAK1 JH1 kinase, above 10000 nM; on JAK3 JH1 kinase it was above 10000 nM; on JAK1 JH2 pseudokinase, 4.56 nM; on JAK2 JH1 kinase, above 10000 nM. Besides, the “Improvement of psoriasis symptoms” value in [1] was “effectively improve psoriasis symptoms”. The GI50 in data set [2] fell in the range of 1 to 5 nM. At hERG channel, the hERG inhibition result is reported as “no significant inhibition”.
As for `[2H]C([2H])([2H])NC(=O)c1cnc(NC(=O)C2CC2)cc1Nc1cccc(C(=O)Nc2cccc(C)c2)c1OC` [Example 55], the IC50 on TYK2 JH2 pseudokinase was 0.298 nM; on TYK2 JH1 kinase, above 10000 nM; on JAK1 JH1 kinase, above 10000 nM; at JAK3 JH1 kinase, above 10000 nM; on JAK1 JH2 pseudokinase, 3.3 nM; at JAK2 JH1 kinase it was above 10000 nM. In addition, in data set [1], the “Improvement of psoriasis symptoms” value is given as “effectively improve psoriasis symptoms”. For the same compound, the GI50 in [2] lay in the range of 1 to 5 nM. Further, the hERG inhibition entry on hERG channel is listed as “no significant inhibition”.
